In PubChem BioAssay AID330 (DTP/NCI, 2004):
Several values for one entry are separate records, joined by “and”; a condition that tells them apart may be missing. Identical values can stand only once. Toxic doses and inconclusive results are not listed. The calls were made as follows: active = survival T/C of 150% or more; inactive = T/C below 125% in these data.

Tested on: P388 leukemia ip, CD2F1 mice, survival T/C
Assay: NCI In Vivo Anticancer Drug Screen. Data for tumor model P388 Leukemia (intraperitoneal) in CD2F1 (CDF1) mice
Conditions: endpoint: median survival time, higher = longer survival
Procedure, shortened: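 Mice carrying the transplanted tumor received test compound or vehicle. Survival was recorded in each group, and the value is the treated-group measurement divided by that of the vehicle-treated control group.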

[1] = dose: 50.0 mg/kg/injection, schedule: Q01DX009 (ip), vehicle: saline with Tween-80
[2] = dose: 100.0 mg/kg/injection, schedule: Q01DX009 (ip), vehicle: saline with Tween-80
[3] = dose: 200.0 mg/kg/injection, schedule: Q01DX009 (ip), vehicle: saline with Tween-80
[4] = dose: 100.0 mg/kg/injection, schedule: Q01DX001 (ip), vehicle: saline
[5] = dose: 200.0 mg/kg/injection, schedule: Q01DX001 (ip), vehicle: saline
[6] = dose: 400.0 mg/kg/injection, schedule: Q01DX001 (ip), vehicle: saline
[7] = dose: 12.5 mg/kg/injection, schedule: Q01DX009 (ip), vehicle: saline with Tween-80
[8] = dose: 25.0 mg/kg/injection, schedule: Q01DX009 (ip), vehicle: saline with Tween-80
[9] = dose: 50.0 mg/kg/injection, schedule: Q01DX005 (ip), vehicle: Klucel (hydroxypropylcellulose) (HPC)
[10] = dose: 100.0 mg/kg/injection, schedule: Q01DX005 (ip), vehicle: Klucel (hydroxypropylcellulose) (HPC)
[11] = dose: 200.0 mg/kg/injection, schedule: Q01DX005 (ip), vehicle: Klucel (hydroxypropylcellulose) (HPC)
[12] = dose: 60.0 mg/kg/injection, schedule: Q01DX005 (ip), vehicle: saline with Tween-80
[13] = dose: 120.0 mg/kg/injection, schedule: Q01DX005 (ip), vehicle: saline with Tween-80
[14] = dose: 240.0 mg/kg/injection, schedule: Q01DX005 (ip), vehicle: saline with Tween-80
[15] = dose: 25.0 mg/kg/injection, schedule: Q01DX009 (ip), vehicle: Klucel (hydroxypropylcellulose) (HPC)
[16] = dose: 50.0 mg/kg/injection, schedule: Q01DX005 (ip), vehicle: saline with Tween-80
[17] = dose: 100.0 mg/kg/injection, schedule: Q01DX005 (ip), vehicle: saline with Tween-80
[18] = dose: 200.0 mg/kg/injection, schedule: Q01DX005 (ip), vehicle: saline with Tween-80
[19] = dose: 50.0 mg/kg/injection, schedule: Q01DX009 (ip), vehicle: Klucel (hydroxypropylcellulose) (HPC)
[20] = dose: 3.12 mg/kg/injection, schedule: Q01DX009 (ip), vehicle: saline with Tween-80
[21] = dose: 6.25 mg/kg/injection, schedule: Q01DX009 (ip), vehicle: saline with Tween-80

Measured: T/C

NC(=O)c1ccc[n+](CCC[n+]2cccc(C(N)=O)c2)c1
inactive: dose: 60.0 mg/kg/injection, schedule: Q01DX005 (ip), vehicle: saline 103 % of control | dose: 120.0 mg/kg/injection, schedule: Q01DX005 (ip), vehicle: saline 101 % of control | dose: 240.0 mg/kg/injection, schedule: Q01DX005 (ip), vehicle: saline 99 % of control

CCCC(C)C(=O)N(C(C)=O)c1ccc(Cl)c(Cl)c1 (stereo unspecified)
inactive: [1] 103 % of control | [2] 103 % of control | [3] 110 % of control

C=C1C(=O)O[C@@H]2[C@H]3C(C)=CC[C@H]3C(C)=CC[C@@H]12
inactive: [4] 106 % of control | [5] 103 % of control | [6] 107 % of control

Clc1ccc(N=C2N=C(Nc3ccc(Cl)cn3)c3ccccc32)nc1
inactive: [7] 86 % of control | [8] 89 % of control | [1] 87 % of control and 95 % of control

COc1c2c(c(C)c3ccc4ccccc4c13)CCN=C2
inactive: [9] 103 % of control | [10] 102 % of control | [11] 113 % of control

Cc1nc2c(o1)CCCC2
inactive: [12] 95 % of control | [13] 90 % of control | [14] 99 % of control

CCCCCCCCCCCC[N+](C)(C)C (tested in a mixture with another compound)
inactive: dose: 6.25 mg/kg/injection, schedule: Q01DX009 (ip), vehicle: Klucel (hydroxypropylcellulose) (HPC) 113 % of control | dose: 12.5 mg/kg/injection, schedule: Q01DX009 (ip), vehicle: Klucel (hydroxypropylcellulose) (HPC) 114 % of control | [15] 114 % of control

Cc1cccc(/C(=C/c2ccc([N+](=O)[O-])cc2)C(=O)Nc2ccc(S(=O)(=O)F)cc2)c1
inactive: [12] 93 % of control | [13] 98 % of control

COC(=O)C(CC(C)C)NC(=O)C(Cc1ccc(O)cc1)N(C(=O)OCc1ccccc1)C(=O)OCc1ccccc1 (stereo unspecified)
inactive: [16] 103 % of control | [17] 94 % of control | [18] 92 % of control

O=C=C=O
inactive: dose: 1:2.0 dilution, schedule: Q01DX001 (ip), vehicle: none 102 % of control | dose: 1:4.0 dilution, schedule: Q01DX001 (ip), vehicle: none 104 % of control | dose: 1:8.0 dilution, schedule: Q01DX001 (ip), vehicle: none 99 % of control

Cc1cc(NC(=O)C(=O)O)cc2c(=O)cc(C(=O)O)[nH]c12
inactive: [15] 102 % of control | [19] 117 % of control and 124 % of control

Cc1ncc(CO)c(C2NCCS2)c1O (stereo unspecified)
inactive: [12] 100 % of control | [13] 107 % of control | [14] 107 % of control

c1ccc2c(c1)cc1c3nncn3ncn21
inactive: [7] 100 % of control | [8] 92 % of control | [1] 93 % of control

CCN1CC(O)Cc2ccccc21 (stereo unspecified)
inactive: [12] 100 % of control | [13] 94 % of control

Cn1c(=O)oc2ccc(S(=O)(=O)Nc3ccc(Cl)cc3[N+](=O)[O-])cc21
inactive: dose: 50.0 mg/kg/injection, schedule: Q01DX005 (ip), vehicle: saline + Tween-80 + alcohol 94 % of control | dose: 100.0 mg/kg/injection, schedule: Q01DX005 (ip), vehicle: saline + Tween-80 + alcohol 101 % of control | dose: 200.0 mg/kg/injection, schedule: Q01DX005 (ip), vehicle: saline + Tween-80 + alcohol 102 % of control

CCN(CC)CCSC(=O)N1c2ccccc2Sc2ccc(Cl)cc21
inactive: [20] 96 % of control | [21] 104 % of control and 105 % of control | [7] 96 % of control | [8] 93 % of control | [1] 100 % of control

c1cc2cc(-c3cc4ccc(C5=NCCN5)cc4[nH]3)[nH]c2cc1C1=NCCN1
active: dose: 100.0 mg/kg/injection, schedule: Q04DX003 (ip), vehicle: saline 210 % of control | dose: 200.0 mg/kg/injection, schedule: Q04DX003 (ip), vehicle: saline 189 % of control | dose: 400.0 mg/kg/injection, schedule: Q04DX003 (ip), vehicle: saline 159 % of control

COC(=O)OC(C#N)c1ccc([N+](=O)[O-])cc1 (stereo unspecified)
inactive: dose: 12.5 mg/kg/injection, schedule: Q01DX009 (ip), vehicle: saline 99 % of control and 88 % of control | dose: 25.0 mg/kg/injection, schedule: Q01DX009 (ip), vehicle: saline 93 % of control and 97 % of control | dose: 50.0 mg/kg/injection, schedule: Q01DX009 (ip), vehicle: saline 90 % of control and 97 % of control | dose: 50.0 mg/kg/injection, schedule: Q01DX009 (ip), vehicle: suspension in saline 97 % of control

O=C(O)C1CCC(=O)N1Cc1c[nH]c2ccccc12 (stereo unspecified)
inactive: [12] 98 % of control | [13] 94 % of control | [14] 97 % of control

Clc1ccc(C(c2ccc(Cl)cc2)C(Cl)(Cl)Cl)cc1
inactive: dose: 1.56 mg/kg/injection, schedule: Q01DX009 (ip), vehicle: saline with Tween-80 105 % of control | [20] 98 % of control | [21] 100 % of control | [7] 98 % of control | [1] 99 % of control

C/C(=N/NC(N)=O)c1cn[nH]c1C
inactive: dose: 60.0 mg/kg/injection, schedule: Q01DX005 (ip), vehicle: Klucel (hydroxypropylcellulose) (HPC) 117 % of control | dose: 120.0 mg/kg/injection, schedule: Q01DX005 (ip), vehicle: Klucel (hydroxypropylcellulose) (HPC) 124 % of control

CCC(C)N(CC)CCNc1cc(OC)cc2cccnc12 (stereo unspecified)
inactive: dose: 50.0 mg/kg/injection, schedule: Q01DX005 (ip), vehicle: saline 103 % of control | dose: 100.0 mg/kg/injection, schedule: Q01DX005 (ip), vehicle: saline 99 % of control

CN1C(=O)C(=C/C=C/N(C)c2ccccc2)C(=O)N(C)C1=O
inactive: [1] 96 % of control | [2] 95 % of control | [3] 88 % of control

CN(C)CCN1C(=O)c2cccc3cc([N+](=O)[O-])cc(c23)C1=O
inactive: dose: 0.78 mg/kg/injection, schedule: Q01DX009 (ip), vehicle: saline with Tween-80 101 % of control | [20] 117 % of control and 124 % of control

CC(=O)C1C(=O)C(=O)N(c2ccc(C)cc2C)C1=O (stereo unspecified)
inactive: [19] 105 % of control | dose: 100.0 mg/kg/injection, schedule: Q01DX009 (ip), vehicle: Klucel (hydroxypropylcellulose) (HPC) 114 % of control | dose: 200.0 mg/kg/injection, schedule: Q01DX009 (ip), vehicle: Klucel (hydroxypropylcellulose) (HPC) 110 % of control

ClC1CCCCC1C(C1CCCCC1)C1CCCCC1 (stereo unspecified)
inactive: [16] 98 % of control | [17] 100 % of control

O=[N+]([O-])/N=c1/nc2scc(-c3ccc([N+](=O)[O-])cc3)n2s1
inactive: dose: 1.87 mg/kg/injection, schedule: Q01DX005 (ip), vehicle: saline with Tween-80 99 % of control | dose: 3.75 mg/kg/injection, schedule: Q01DX005 (ip), vehicle: saline with Tween-80 107 % of control | dose: 7.5 mg/kg/injection, schedule: Q01DX005 (ip), vehicle: saline with Tween-80 99 % of control and 97 % of control | dose: 30.0 mg/kg/injection, schedule: Q01DX005 (ip), vehicle: saline with Tween-80 91 % of control | [12] 106 % of control | [14] 87 % of control

CCOC(=O)N1CCN(c2ccc(/C=C\c3cccc(/C=C\c4ccc(N5CCN(C(=O)OCC)CC5)cc4)[n+]3C)cc2)CC1
inactive: dose: 3.12 mg/kg/injection, schedule: Q01DX009 (ip), vehicle: saline 118 % of control | dose: 6.25 mg/kg/injection, schedule: Q01DX009 (ip), vehicle: saline 111 % of control

CC(=O)NNC1=NC(C)(C)CC1
inactive: [4] 97 % of control | [5] 102 % of control | [6] 102 % of control

CCC(C)C(NC(=O)OC(C)(C)c1ccc(-c2ccccc2)cc1)C(=O)O (stereo unspecified)
inactive: [16] 99 % of control | [17] 102 % of control | [18] 95 % of control

COc1ccc(C2c3cc(OC)c(OC)cc3CC3C(=O)OCC32)cc1OC (stereo unspecified)
inactive: [9] 94 % of control and 107 % of control | [10] 100 % of control and 97 % of control | [11] 112 % of control and 103 % of control

COCC1(C)CCCC2(C)C3=C(CCC(OC(C)=O)C3)CCC12 (stereo unspecified)
inactive: dose: 100.0 mg/kg/injection, schedule: Q04DX003 (ip), vehicle: suspension in saline 100 % of control | dose: 200.0 mg/kg/injection, schedule: Q04DX003 (ip), vehicle: suspension in saline 102 % of control | dose: 400.0 mg/kg/injection, schedule: Q04DX003 (ip), vehicle: suspension in saline 102 % of control
